The structures appear in SMILES notation.

The target of experiment [1] is T1, ARNT PAS-B (aryl hydrocarbon receptor nuclear translocator) (Homo sapiens, UniProt P27540, Y456T).
T1 construct: PAS-B domain, residues 356–470 (with N-terminal GAMD cloning artifact)
The experiment is described as follows: […]/1H HSQC NMR titration ([…]/1H HSQC titration also gave Kd […]). Format: binding.

In experiment [2] the target is T1, ARNT PAS-B (aryl hydrocarbon receptor nuclear translocator). Description: […]/1H HSQC NMR titration (L391 δ[…] methyl). Type of experiment: binding.

T1 sequence (P27540 356-470 Y456T): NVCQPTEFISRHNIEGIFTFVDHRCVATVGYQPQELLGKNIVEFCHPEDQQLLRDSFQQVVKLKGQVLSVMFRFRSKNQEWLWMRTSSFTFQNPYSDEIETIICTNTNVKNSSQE

`FC(F)(F)c1cc(-c2nn[nH]n2)cc(C(F)(F)F)c1` [KG-548, 5-(3,5-bis(trifluoromethyl)phenyl)tetrazole] yielded a Kd in experiment [1] of 684 ± 33.1 µM.
For `Oc1cc(C(F)(F)F)cc(C(F)(F)F)c1` [KG-655, 3,5-bis(trifluoromethyl)phenol], in experiment [2], the Kd worked out at 1950 ± 152 µM.

The record behind these values is publication PMC9119131, “Fragile protein folds: sequence and environmental factors affecting the equilibrium of two interconverting, stably folded protein conformations” (Magnetic resonance, 2021).
